From patent publication US10377753B2, “Substituted 4-azaindoles and their use as GluN2B receptor modulators” (Janssen Pharmaceutica NV, priority 2015, dated 2019)
Counter-ions that a name gives are not always drawn.

Target: cloned human NR1/NR2B ion channels (Homo sapiens (Human), UniProt Q05586+Q13224)
Test: HNR2BC: effects of test articles on cloned human NR1/NR2B ion channels expressed in mammalian cells (FLIPR calcium flux)
Type: cell-based
Details: cloned human NR1/NR2B, Table 5
Outline: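 Compounds were added to dye-loaded cells for 5 min with fluorescence monitored for agonism, followed by co-agonists (glutamate ~EC80, glycine 10 μM saturating) for 5 min. Cells stably expressed inducible human NR1/NR2B, and the buffer was pH 7.4. The FLIPR Ca2+ flux signal was normalized against control wells.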

Sequence of cloned human NR1/NR2B ion channels (Q13224 27-1484, other chains not shown): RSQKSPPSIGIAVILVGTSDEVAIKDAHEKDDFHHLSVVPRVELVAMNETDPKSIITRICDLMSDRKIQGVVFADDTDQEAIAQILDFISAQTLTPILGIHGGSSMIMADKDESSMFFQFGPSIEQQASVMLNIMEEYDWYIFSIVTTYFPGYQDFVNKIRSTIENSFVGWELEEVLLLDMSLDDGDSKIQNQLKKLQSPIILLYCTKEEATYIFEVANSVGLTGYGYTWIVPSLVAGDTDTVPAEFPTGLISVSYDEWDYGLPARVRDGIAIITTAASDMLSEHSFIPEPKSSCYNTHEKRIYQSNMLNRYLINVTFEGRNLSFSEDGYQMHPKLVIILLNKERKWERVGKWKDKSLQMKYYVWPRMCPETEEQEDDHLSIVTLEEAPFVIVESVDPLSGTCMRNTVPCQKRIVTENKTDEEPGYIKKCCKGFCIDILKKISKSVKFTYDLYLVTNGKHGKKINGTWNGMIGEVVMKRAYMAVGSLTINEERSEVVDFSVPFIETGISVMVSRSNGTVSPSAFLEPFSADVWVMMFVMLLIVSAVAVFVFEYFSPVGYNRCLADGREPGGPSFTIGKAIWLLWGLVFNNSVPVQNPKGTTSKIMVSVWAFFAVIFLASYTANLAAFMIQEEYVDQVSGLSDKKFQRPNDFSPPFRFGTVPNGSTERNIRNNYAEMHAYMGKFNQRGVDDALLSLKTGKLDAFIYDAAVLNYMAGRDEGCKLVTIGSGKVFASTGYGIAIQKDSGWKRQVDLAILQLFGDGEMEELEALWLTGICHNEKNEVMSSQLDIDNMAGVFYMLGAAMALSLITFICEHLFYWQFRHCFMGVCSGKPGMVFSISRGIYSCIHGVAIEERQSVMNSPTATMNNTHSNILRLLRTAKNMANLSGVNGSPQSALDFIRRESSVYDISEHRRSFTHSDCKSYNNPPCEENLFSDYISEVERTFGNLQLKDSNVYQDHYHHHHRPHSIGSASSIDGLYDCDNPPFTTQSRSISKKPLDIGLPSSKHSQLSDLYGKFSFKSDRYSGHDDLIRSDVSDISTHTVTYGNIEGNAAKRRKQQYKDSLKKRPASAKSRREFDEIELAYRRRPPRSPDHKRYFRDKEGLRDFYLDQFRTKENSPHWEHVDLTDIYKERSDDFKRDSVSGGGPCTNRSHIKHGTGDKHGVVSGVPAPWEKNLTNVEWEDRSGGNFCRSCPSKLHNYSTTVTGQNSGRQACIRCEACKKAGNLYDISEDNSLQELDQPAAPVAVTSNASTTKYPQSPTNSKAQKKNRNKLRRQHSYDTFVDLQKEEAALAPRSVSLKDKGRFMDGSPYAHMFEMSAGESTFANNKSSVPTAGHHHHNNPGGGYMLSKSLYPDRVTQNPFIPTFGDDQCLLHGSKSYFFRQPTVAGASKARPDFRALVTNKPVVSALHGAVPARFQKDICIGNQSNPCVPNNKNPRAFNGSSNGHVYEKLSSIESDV

IC50	SMILES
15800 nM	O=C(Cn1ccc2ncc(-c3ccc(F)cc3)cc21)NCCF [Example 233, N-(2-Fluoroethyl)-2-[6-(4-fluorophenyl)pyrrolo[3,2-b]pyridin-1-yl]acetamide]
2510 nM	CC(C)CNC(=O)Cn1ccc2ncc(-c3ccc(F)cc3)cc21 [Example 234, 2-[6-(4-Fluorophenyl)pyrrolo[3,2-b]pyridin-1-yl]-N-isobutyl-acetamide]
200 nM	Cc1cc(-c2cnc3ccn(Cc4cnn(C)c4)c3c2)ccc1F [Example 236, 6-(4-Fluoro-3-methyl-phenyl)-1-[(1-methylpyrazol-4-yl)methyl]pyrrolo[3,2-b]pyridine]
2000 nM	O=C(Cn1ccc2ncc(-c3ccc(F)cc3)cc21)NCC1CC1 [Example 237, N-(Cyclopropylmethyl)-2-[6-(4-fluorophenyl)pyrrolo[3,2-b]pyridin-1-yl]acetamide]
3160 nM	Cc1cc(-c2cnc3ccn(Cc4cn(C)nn4)c3c2)ccc1F [Example 238, 6-(4-Fluoro-3-methyl-phenyl)-1-[(1-methyltriazol-4-yl)methyl]pyrrolo[3,2-b]pyridine]
158 nM	Cc1noc(Cn2cc(Cl)c3ncc(-c4ccc(F)c(C)c4)cc32)n1 [Example 239, 5-[[3-Chloro-6-(4-fluoro-3-methyl-phenyl)pyrrolo[3,2-b]pyridin-1-yl]methyl]-3-methyl-1,2,4-oxadiazole]
501 nM	Cc1cc(-c2cnc3c(Cl)cn(Cc4cnn(C)c4)c3c2)ccc1F [Example 240, 3-Chloro-6-(4-fluoro-3-methyl-phenyl)-1-[(1-methylpyrazol-4-yl)methyl]pyrrolo[3,2-b]pyridine]
5010 nM	Cc1cc(-c2cnc3c(Cl)cn(CC(=O)C4CCC4)c3c2)ccc1F [Example 241, 2-[3-Chloro-6-(4-fluoro-3-methyl-phenyl)pyrrolo[3,2-b]pyridin-1-yl]-1-cyclobutyl-ethanone]
794 nM	Cc1cc(-c2cnc3ccn(CC(=O)C4CCC4)c3c2)ccc1F [Example 242, 1-Cyclobutyl-2-[6-(4-fluoro-3-methyl-phenyl)pyrrolo[3,2-b]pyridin-1-yl]ethanone]
100 nM	O=C(Cn1cc(Cl)c2ncc(-c3cncc(C(F)(F)F)c3)cc21)N1CCC1 [Example 243, 1-(Azetidin-1-yl)-2-[3-chloro-6-[5-(trifluoromethyl)-3-pyridyl]pyrrolo[3,2-b]pyridin-1-yl]ethanone trifluoroacetate salt]
631 nM	O=C(Cn1cc(Cl)c2ncc(-c3cncc(C(F)(F)F)c3)cc21)NC1CC1 [Example 244, 2-[3-Chloro-6-[5-(trifluoromethyl)-3-pyridyl]pyrrolo[3,2-b]pyridin-1-yl]-N-cyclopropyl-acetamide trifluoroacetate salt]
398 nM	O=C(Cn1cc(Cl)c2ncc(-c3cccc(C(F)(F)F)n3)cc21)N1CCC1 [Example 245, 1-(Azetidin-1-yl)-2-[3-chloro-6-[6-(trifluoromethyl)-2-pyridyl]pyrrolo[3,2-b]pyridin-1-yl]ethanone]
100 nM	O=C(Cn1cc(Cl)c2ncc(-c3cccc(C(F)(F)F)n3)cc21)NC1CC1 [Example 246, 2-[3-Chloro-6-[6-(trifluoromethyl)-2-pyridyl]pyrrolo[3,2-b]pyridin-1-yl]-N-cyclopropyl-acetamide]
316 nM	O=C(Cn1cc(Cl)c2ncc(-c3cccc(C(F)(F)F)n3)cc21)N1CC(F)C1 [Example 247, 2-[3-Chloro-6-[6-(trifluoromethyl)-2-pyridyl]pyrrolo[3,2-b]pyridin-1-yl]-1-(3-fluoroazetidin-1-yl)ethanone]
63.1 nM	O=C(Cn1ccc2ncc(-c3cc(F)c(F)c(F)c3)cc21)NC1CC1 [Example 248, N-Cyclopropyl-2-[6-(3,4,5-trifluorophenyl)pyrrolo[3,2-b]pyridin-1-yl]acetamide]
79.4 nM	O=C(Cn1ccc2ncc(-c3ccc(F)c(F)c3F)cc21)NC1CC1 [Example 249, N-Cyclopropyl-2-[6-(2,3,4-trifluorophenyl)pyrrolo[3,2-b]pyridin-1-yl]acetamide]
251 nM	O=C(Cn1ccc2ncc(-c3cccc(C(F)F)c3)cc21)NC1CC1 [Example 250, N-Cyclopropyl-2-[6-[3-(difluoromethyl)phenyl]pyrrolo[3,2-b]pyridin-1-yl]acetamide]
50.1 nM	O=C(Cn1ccc2ncc(-c3ccc(F)cc3)cc21)NCc1ccccc1 [Example 251, N-Benzyl-2-[6-(4-fluorophenyl)pyrrolo[3,2-b]pyridin-1-yl]acetamide]
79.4 nM	O=C(Cn1ccc2ncc(-c3ccc(F)cc3)cc21)NCCO [Example 253, 2-[6-(4-Fluorophenyl)pyrrolo[3,2-b]pyridin-1-yl]-N-(2-hydroxyethyl)acetamide]
1260 nM	COCCNC(=O)Cn1ccc2ncc(-c3ccc(F)cc3)cc21 [Example 254, 2-[6-(4-Fluorophenyl)pyrrolo[3,2-b]pyridin-1-yl]-N-(2-methoxyethyl)acetamide]
3980 nM	O=C(Cn1ccc2ncc(-c3cccc(C(F)(F)F)c3F)cc21)N1CC(F)(F)C1 [Example 255, 1-(3,3-Difluoroazetidin-1-yl)-2-[6-[2-fluoro-3-(trifluoromethyl)phenyl]pyrrolo[3,2-b]pyridin-1-yl]ethanone trifluoroacetate salt]
79.4 nM	O=C(Cn1ccc2ncc(-c3cccc(F)c3)cc21)N1CC(F)(F)C1 [Example 256, 1-(3,3-Difluoroazetidin-1-yl)-2-[6-(3-fluorophenyl)pyrrolo[3,2-b]pyridin-1-yl]ethanone trifluoroacetate salt]
126 nM	O=C(Cn1ccc2ncc(-c3ccccc3)cc21)N1CC(F)(F)C1 [Example 257, 1-(3,3-Difluoroazetidin-1-yl)-2-(6-phenylpyrrolo[3,2-b]pyridin-1-yl)ethanone trifluoroacetate salt]
200 nM	CCc1cccc(-c2cnc3ccn(CC(=O)N4CC(F)(F)C4)c3c2)c1 [Example 258, 1-(3,3-Difluoroazetidin-1-yl)-2-[6-(3-ethylphenyl)pyrrolo[3,2-b]pyridin-1-yl]ethanone trifluoroacetate salt]
31.6 nM	Cc1cc(-c2cnc3ccn(CC(=O)N4CC(F)(F)C4)c3c2)ccc1F [Example 259, 1-(3,3-Difluoroazetidin-1-yl)-2-[6-(4-fluoro-3-methyl-phenyl)pyrrolo[3,2-b]pyridin-1-yl]ethanone trifluoroacetate salt]
39.8 nM	O=C(Cn1ccc2ncc(-c3cccc(C(F)(F)F)c3)cc21)N1CC(F)(F)C1 [Example 260, 1-(3,3-Difluoroazetidin-1-yl)-2-[6-[3-(trifluoromethyl)phenyl]pyrrolo[3,2-b]pyridin-1-yl]ethanone trifluoroacetate salt]
50.1 nM	Cc1cc(F)ccc1-c1cnc2ccn(CC(=O)N3CC(F)(F)C3)c2c1 [Example 261, 1-(3,3-Difluoroazetidin-1-yl)-2-[6-(4-fluoro-2-methyl-phenyl)pyrrolo[3,2-b]pyridin-1-yl]ethanone trifluoroacetate salt]
100 nM	O=C(Cn1ccc2ncc(-c3ccc(F)c(C(F)(F)F)c3)cc21)N1CC(F)C1 [Example 262, 1-(3-Fluoroazetidin-1-yl)-2-[6-[4-fluoro-3-(trifluoromethyl)phenyl]pyrrolo[3,2-b]pyridin-1-yl]ethanone trifluoroacetate salt]
